Reference: patent publication US11203582B2, “Benzamide derivatives for inhibiting endoplasmic reticulum (ER) stress” (The Board of Regents of the University of Oklahoma, priority 2017, dated 2021)
Like-named read-outs stand apart in the source and are kept apart here.

Tests used:
INS-1 cells = test: Cell survival assay, intracellular ATP (CellTiter-Glo), INS-1 cells treated with Tm; type: cell-based, rat
Method: A structure-activity-relationship (SAR) study was thus conducted to improve the weak potency of lead compound 1. Newly synthesized or commercially available compounds were tested for their β-cell-protective activity against ER stress in rat INS-1 β-cells. […] The maximum activities and the concentrations that reach half-maximal activity (EC50) of the compounds were evaluated by the degree of increase in viability of INS-1 cells co-treated with the compounds in the presence of Tm compared with Tm treatment alone. Maximum activity value in the tables is reported as % rescue from Tm (0.1 μg/mL)-induced reduction of cell viability. The values for Tm treatment alone and control (DMSO, without Tm) treatment are designated as 0% and 100%, respectively in all tables. EC50 values (the concentrations that reach half-maximal activity) for INS-1 cell viability were calculated with GraphPad Prism from the data of ten 2-fold serial titration points in all tables. All experiments were performed in triplicate in all tables.
INS-1 cells were cultured in RPMI 1640 (Corning, N.Y., USA) supplemented with 10% FBS (Atlanta Biologicals, Norcross, Ga.), HEPES (10 mM, Life Technologies, CA, USA), sodium pyruvate (1 mM, Corning), 2-mercaptoethanol (50 μM, Sigma, St Louis, Mo., USA) and antibiotics (100 UI/mL penicillin and 100 μg/mL streptomycin, Corning). βTC6 cells were cultured in DMEM (Corning) with 15% FBS, sodium pyruvate (1 mM, Corning), non-essential amino acids (1 mM, Thermo, Ill., USA), GlutaMAX (1 mM, Life Technologies) and antibiotics (100 UI/mL penicillin and 100 μg/mL streptomycin). All cells were grown at 37° C. in a humidified 5% CO2 atmosphere.
INS-1 cells or βTC6 cells were seeded at 3×10^3 cells/well in a 384-well plate and treated with compounds at the indicated concentrations. After 3 d treatment, the medium was aspirated and 20 μL/well of CellTiter-Glo reagent (Promega, WI, USA) was added for the detection of intracellular ATP levels. Cell viability was measured with an EnVision multilabel plate reader (PerkinElmer, MA, USA).

[1] = test system: STZ-induced diabetic mouse model; test: Streptozotocin (STZ)-induced diabetic mouse model; type: in vivo, C57BL/6 mice
Method: (A) Fasting blood glucose levels were measured in STZ-injected mice treated with vehicle control (n=6) or 13d (n=7). C57BL/6J mice were injected intraperitoneally once daily for 5 days with STZ (50 mg/kg body weight) and with either vehicle (n=6 mice) or 13d (5 mg/kg body weight; n=7 mice). Injections of vehicle or 13d alone were then continued for 2 more weeks. (B) Glucose tolerance test. Blood glucose levels measured at indicated time points after intraperitoneal injection of glucose (2 g/kg body weight). (C) Pancreases were sectioned and slides were stained with anti-insulin antibody (green, β-cell marker), anti-glucagon antibody (red, α-cell marker), and DAPI (blue). Slides were imaged with an Olympus FV1000 confocal microscope. Representative images are shown in (C). (D) Quantification of total islet area per section and β-cell number per islet. Total area of all islets per section calculated for a total of six sections using insulin-positive cells to demarcate islets. Data are the means±SEM of six sections from three mice. *p<0.05 **p<0.01, and ***p<0.001 by Student's t-test.
We next evaluated the in vivo efficacy of 13d using a streptozotocin (STZ)-induced diabetic mouse model. STZ induces ER stress in β-cells in addition to the increase in reactive oxygen species (ROS) production and DNA alkylation. C57BL/6 mice injected intraperitoneally with low dose STZ (50 mg/kg) once daily for 5 consecutive days develop diabetes; blood glucose levels increased gradually within a week of STZ treatment.
All procedures involving animals were performed in accordance with the protocol approved by the University of Oklahoma Health Science Center Institutional Animal Care and Use Committee (IACUC). C57BL/6 mice were obtained from The Jackson Laboratory (Bar Harbor, Me.) and maintained on a 12 h light (6:00 AM-6:00 PM)-12 h dark (6:00 PM-6:00 AM) cycle at an ambient temperature of 21° C. Mice were given free access to water and food. All experiments were performed with age-matched male mice. Compounds were dosed during light cycle. For streptozotocin (STZ)-induced diabetic model, ten-week-old C57BL/6 mice were injected intraperitoneally (i.p.) once daily for five days with STZ (dissolved in Na-Citrate Buffer; 50 mg/kg) and either 13d (5 mg/kg body weight; 2 mg/ml in 10% DMSO in saline buffer; n=7 mice) or vehicle (n=6 mice). Injections of vehicle or 13d alone were then continued for 2 more weeks. Every third day, animals were fasted for 5 h and blood was obtained by tail snip. Blood glucose levels were measured using a glucometer (Nova Statstrip Xpress; Data Science International, St. Paul, Minn.). At the end of the treatment period, mice were sacrificed and the pancreases were removed, fixed in formalin, and paraffin-embedded. Tissue blocks were serially sectioned at intervals of 100 μm and 6 sections were stained with an anti-insulin antibody (A0564, 1:500 dilution; Dako), anti-glucagon antibody (G2654, 1:500 dilution; Sigma), and DAPI (0.5 μg/ml). Insulin-positive cells were used to demarcate islets, and the total islet area was measured with an Olympus FV1000 confocal microscopy and quantified with Image-J histogram software.

O=C(NCc1ccc(C(F)(F)F)cc1)c1cccc(CN2CCCCC2)c1 [Compound 13d, N-(4-trifluoromethylphenmethyl)-3-(N-piperidinyl)methyl benzamide]
range of concentrations retaining maximum β-cell-protective activity (INS-1 cells; INS-1 cells, Tm 0.1 μg/mL, 72 h, FIG. 2A): 0.16 to 20 µM | maximum activity (β-cell-protective activity) (INS-1 cells; INS-1 cells, Tm-induced ER stress): ~100% | EC50 (INS-1 cells; INS-1 cells, Tm-induced ER stress, read-out: EC50): 0.032 µM | effect of compound on its own on β-cell viability (INS-1 cells; INS-1 cells, no Tm, 72 h, FIG. 2D): no effect | Maximum activity (% rescue) (INS-1 cells; Table 5, INS-1 cells, Tm 0.1 μg/mL, 72 h, Tm alone 0%, DMSO control 100%): 97% ± 8% | viability of INS-1 β-cells under Tm treatment (intracellular ATP) (INS-1 cells; Tm 0.1 μg/mL, 72 h, FIG. 2A): rescued the viability of INS-1 β-cells under Tm treatment in a dose-dependent manner | EC50 (INS-1 cells; running text b108, read-out: EC50 value against ER stress): ~0.03 µM | total pancreatic islet β-cell area compared to vehicle-treated mice ([1]; STZ mice, 5 mg/kg): more than double | fasting blood glucose level ([1]; STZ mice, 5 mg/kg i.p. once daily, after 3 weeks of treatment): 314 mg/dL | total pancreatic islet β-cell area ([1]; STZ mice, 5 mg/kg, pancreatic sections at end of treatment): 67.4±5.9% | average number of α-cells ([1]; STZ mice, 5 mg/kg, vehicle vs 13d groups): no obvious effect | intraperitoneal glucose tolerance test, blood glucose vs vehicle-treated STZ group ([1]; overnight fasted STZ mice, 5 mg/kg, glucose 2 g/kg i.p.): lower blood glucose levels at 15, and 30 min
